Experiments:
Assay type in all cases: cell-based
[1] = system: scFvCD19-Myc-DAP10-sSBP; test: Time course release using biotin (RUSH traffic, immunofluorescence) with Str-endoKKXX hook; settings: HeLa cells, addition of biotin (40 μM)
Method: (§1) HeLa cells were cultivated at 37° C. and 5% of CO2 in Dulbecco's modified Eagle medium (DMEM) supplemented with 10%1-BS (Biowest), 1 mM sodium Pyruvate and […] of penicillin and streptomycin (Invitrogen). HeLa cells were transfected with the plasmid of interest using Calcium phosphate protocol in the presence of 25 mM of HEPES. Briefly, the plasmids coding the sequence of CAR based RUSH such as CD3-SBP-NKG2D (SEQ ID NO: 13), scFv(CD19)-GFP-DAP10CD3-sSBP (SEQ ID NO: 23), scFv(CD19)-GFP-DAP10-SBPdel (SEQ ID NO: 24), scFv(CD19)-mycDAP10-SBP (SEQ ID NO: 25) or BACE1-SBP-EGFP (SEQ ID NO: 26) (2.5 ug per 1 mL of final volume) were add to 1 mM tris-HCl pH 8.02 buffer followed by the addition of 10% of CaCl2 and incubated for 5 min (RT). Then this mix was add drop by drop into 2× concentrate HEBS buffer (160 mM NaCl, 1.5 mM Na2HPO4, 50 mM Hepes PH 7.04-7.05) while vortexing. The cells were incubated with this solution overnight at 37° C. and 5% of CO2.
(§2) The cells were seeded into a glass coverslips for fixed cell immunofluorescence and/or live imaging. In the next day the cells were transfected with the plasmids coding the construct of interest as previously described. For the steady state of the protein/construct, 40 μM final concentration of biotin was added (4 mM stock solution) just after addition of the transfection solution. […]

[2] = system: scFv (CD19)-GFP-DAP10-sSBP; test: Time course release using biotin (RUSH traffic) with soluble mini hook; settings: HeLa cells, addition of biotin
Method: as §1, §2

[3] = system: scFv (CD19)-GFP-DAP10CD3-sSBP; test: as above; settings: HeLa cells, addition of biotin
Method: as §1, §2

[4] = system: BACE1-GFP-SBP (BACE1-RUSH); test: Retention, ALiS-1 release and wash-out retrieval from the cell surface; settings: HeLa cells
Method: as §1
Biotin-mimetic molecule ALiS-1 was prepared in DMSO to 20 mM (stock solution) and the cells were treated with 40 μM final concentration to prevent the interaction between the reporter (target membrane protein) and the hook.
Cells coated in the coverslips were washed once in 1×PBS buffer, fixed in 3% of paraformaldehyde (PFA) (10-15 min, RT), washed (2×) and incubated with 50 mM of NH4Cl (5 min, RT) to quench free aldehydes. […]

O=C(O)CCCC[C@@H]1SC[C@@H]2NC(=O)N[C@@H]21 [biotin]
release of reporter from the hook [1]: released
release of reporter from the hook [2]: leads to the release
release of reporter from the hook [3]: leads to the release

B1: Ii Hook: previously described Invariant chain-based Hook: streptavidin fused to human invariant chain Ii (Boncompain et al. 2012) (protein)
chain: MHRRRSRSCREDQKPVMDDQRDLISNNEQLPMLGRRPGAPESKCSRGALYTGFSILVTLLLAGQATTAYFLYQQQGRLDKLTVTSQNLQLENLRMKLPKPPKPVSKMRMATPLLMQALPMGALPQGPMQNATKYGNMTEDHVMHLLQNADPLKVYPPLKGSFPENLRHLKNTMETIDWKVFESWMHHWLLFEMSRHSLEQKPTDAPPKESLELEDPSSGLGVTKQDLGPVPM
modifications: left off: large carriers
localization of reporter ([4]; absence of releasing molecule (without biotin)): retained in the ER
retrieval of cell surface reporter back to the ER ([4]; washing-out ALiS-1 for 1 hour): does not allow to capture cell surface localized BAC1-RUSH

— patent publication US12252517B2, “Hook fusion protein for regulating the cellular trafficking of a target protein” (INSTITUT CURIE, priority 2017, dated 2025)
